# Columns and labels:
# α-glucosidase = experiment: In vitro α-glucosidase inhibitory activity (pNPG substrate, absorbance at 405 nm); format: biochemical
# Method: After the pre-incubation, pNPG (substrate, 30 μL, 5 mM) prepared in 0.1 M phosphate buffer (pH 6.8) was poured into the wells of the microplate, which were then incubated at 37 °C for 20 minutes. […] For inhibition studies, various concentrations of test samples were utilized. […] All data were presented as means ± SD values, obtained from a microplate reader for all experiments.
# α-amylase = experiment: In vitro α-amylase inhibition activity (starch-iodine, 580 nm); format: biochemical
# Method: In vitro α-amylase inhibition studies were performed following a reported methodology with slight modification.[20] First, to prepare our reaction mixture, 10 μL of enzyme solution (0.1 mg mL^−1) was combined with a 10 mM phosphate buffer at pH 6.9 (6 mM NaCl), and then mixed with the various concentrations of the tested sample. The resultant reaction mixtures placed in a microplate were incubated for 30 minutes at 37 °C. After the incubation period, 40 μL of starch solution (1%) was added; subsequently, this assay plate was incubated at 37 °C for 10 minutes. Finally, the reaction was terminated by adding 20 μL of 1.0 M HCl to the prepared solution, followed by the addition of 75 μL of iodine solution. Quantification was performed spectrophotometrically at 580 nm. […] Inhibition activity (%) was measured using eqn (1).1 [drawing 1] Here, the control sample excluded the α-amylase and the tested sample. The inhibitor concentration used to inhibit α-amylase activity (50%) under assay was determined as IC50 values. The findings were depicted as means ± SD values, obtained from microplate readers.
substance,measurement,setting,value
(E)-2-((adamantan-2-ylimino)methyl)-6-bromo-4-chlorophenol [AHB],"α-glucosidase inhibition, result in words",α-glucosidase,relatively inactive
same,"α-amylase inhibition, result in words",α-amylase,relatively inactive

# Reference: PMC12134986, “Synthesis, characterization and antidiabetic studies of novel amantadine-derived Schiff base (AHB) and its Zn(II), Co(II), Cr(III) and VO(IV) complexes” (RSC Advances, 2025)
